The Ki is the dissociation constant of the complex between target and ligand, obtained from inhibition or displacement.

Structures can show the parent of a compound that is named as a salt.

The values that follow come from patent publication US6376488B1, “Benzoxazine α-1 adrenergic compounds” (Abbott Laboratories, priority 2000, dated 2002).

The assay addresses T1, α1a (bovine) adrenoreceptor (Bos taurus, UniProt P18130).
T1 sequence (P18130 1-466): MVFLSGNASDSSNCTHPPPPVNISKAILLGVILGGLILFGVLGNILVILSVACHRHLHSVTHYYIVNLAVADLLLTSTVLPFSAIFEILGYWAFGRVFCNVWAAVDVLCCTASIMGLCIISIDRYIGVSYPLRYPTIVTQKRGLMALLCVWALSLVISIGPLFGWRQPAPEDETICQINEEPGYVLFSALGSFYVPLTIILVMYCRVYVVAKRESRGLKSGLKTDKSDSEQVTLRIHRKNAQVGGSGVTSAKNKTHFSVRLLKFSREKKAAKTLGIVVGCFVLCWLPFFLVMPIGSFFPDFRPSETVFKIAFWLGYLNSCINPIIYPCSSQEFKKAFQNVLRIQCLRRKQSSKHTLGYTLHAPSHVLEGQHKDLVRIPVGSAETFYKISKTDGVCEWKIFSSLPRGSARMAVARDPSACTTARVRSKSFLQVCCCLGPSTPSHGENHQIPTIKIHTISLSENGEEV
Nature of the assay: [3H]-prazosin radioligand binding, cloned α1a (bovine) adrenoreceptor in LTK cells. As to conditions: cloned receptor in LTK cell membranes, [3H]prazosin 0.2 nM. The protocol: Representative compounds of the invention were evaluated for α adrenoreceptor binding affinity in vitro using [^3H]-prazosin as the radioligand and following four cloned α1, adrenoreceptors expressed in LTK cells: α1a (rat), α1a (bovine), α1b : (hampster), and α1d (rat).
The cDNA clones encoding the α1, adrenoreceptors were obtained from TULCO (Triangle Universities Licensing Consortium, Research Triangle Park, N.C.) and inserted into the eukaryotic expression vector SnaB30. In this vector, expression of the adrenoreceptor gene is under the transcriptional control of an SV40 early promoter. Positive drug selection is provided by a neomycin-resistance gene. Mouse fibroblast cells (LTK) were transfected with the α1 expression plasmids and grown in Dulbecco's modified Eagle's medium (DMEM) containing 10% fetal calf serum and 30 μM G418. Stable G418-resistant parental lines were generated with successful expression of adrenoreceptor protein monitored using radioligand binding techniques. Stable single cell clones derived from the parental lines were screened in adrenoreceptor binding assays to identify clones having high adrenoreceptor density. Roller bottle cultures of the cloned lines were used to provide cell membranes for subsequent adrenoreceptor binding characterization studies. A cell line containing the SnaB30 vector expressing the human erythropoietin gene served as a negative control.
For adrenoreceptor binding assays, large scale membrane preparations were utilized in which 6 million cells were seeded into small (450 cm^2) Coming tissue culture roller bottles. DMEM (200 mL) containing 10% fetal calf serum and 300 μM G418 were added to each roller bottle. A 95% air/5% CO2 gas mixture (sterile) was injected into each roller bottle prior to sealing, and the bottles were then incubated at 37° C. on a roller rack for 5 days. Cells were refed with fresh medium after 3 days in culture.
On the fifth day of culture, growth medium was removed from cells grown in roller bottles, and the cells were washed twice with PBS (Sigma, 120 mM NaCl, 2.7 mM KCl, 10 mM Na2HPO4-NaH2PO4, pH=7.4). Cells were detached from the roller bottles by incubating for 15 minutes at 37° C. in a Tris-EDTA solution (10 mM Tris, 100 mM NaCl, 1 mM EDTA, pH=7.4). The cell suspension from each roller bottle was decanted into tared centrifuge tubes and kept on ice. An aliquot of each cell suspension was generally taken for cell counting. Cells were centrifuged at 3000×G for 5 minutes at 2-4° C., washed with PBS and recentrifuged. The supernatant was decanted, and the pellet was weighed to determine the wet weight of cells. Cells were washed a final time in 40 vol 5 mM Tris-HCl, 5 mM EDTA, pH=7.7 and centrifuged at 40,000×G for 10 minutes (“vol” indicates volume/weight, e.g., a “vol” of 40 would indicate that the one gram of cells were washed with 40 mls of buffer). Cells were homogenized in of 50 mM Tris-HCl, 5 mM EDTA (pH=7.4) (10 mL) and diluted to 40 mL/tube. Homogenates were centrifuged at 40,000×G for 10 minutes. The supernatant was decanted and the pellets rehomogenized in 50 mM Tris-HCl (pH=7.4) and centrifuged as before. The supernatant was decanted and the homogenate was resuspended in 6.25 volumes (per gram wet weight) of 50 mM Tris-HCl and aliquots of the pooled homogenates frozen in liquid N2 and,stored at −70° C. until the time of assay.
Receptor binding assays for α1 adrenoreceptors were performed essentially as described by Greengrass and Bremner (Eur. J. Pharmacol. 55: 323-326 (1979)). […] Following equilibration, bound radioligand was separated from free on GF/B filters (presoaked in 0.5% polyethyleneimine) using ither a Brandel or Packard cell harvester. Radioactivity was determined by standard liquid scintillation techniques. Data were analyzed as previously described (Hancock, A. A., Kyncl, J. J., Martin, Y. C. and DeBemardis, J. F., J. Receptor Res. 8: 23-46 (1988)). The in Table 1.

As to `COc1cccc2c1N1CCN(CCCCn3c(=O)[nH]c4c(sc5cccnc54)c3=O)CC1CO2` (single isomer, unassigned; (+)) [Example 14, (+) 3-[4-(10-methoxy-1,2,4a,5-tetrahydropyrazino[2,1-c][1,4]benzoxazin-3(4H)-yl)butyl]pyido [2′,3′:4,5]thieno[3,2-d]pyrimidine-2,4(1H,3H)-dione trihydrochloride], the Ki amounted to 0.243 nM.

For the compound `Cl.Cl.O=c1[nH]c2c(sc3ncccc32)c(=O)n1CCCCN1CCN2c3ccccc3OCC2C1` (single isomer, unassigned; (-)) [Example 6, (−) 3-[4-(1,2,4a,5-tetrahydropyrazino[2,1-c][1,4]benzoxazin-3(4H)-yl)butyl]pyrido[3′, 2′:4,5]thieno[3,2-d]pyrimidine-2,4(1H,3H)-dione dihydrochloride], the Ki amounted to 5.51 nM.

`COc1cccc2c1N1CCN(CCCn3c(=O)[nH]c4c(sc5cccnc54)c3=O)CC1CO2.Cl.Cl.Cl` (single isomer, unassigned; (+)) [Example 17, (+) 3-[3-(10-methoxy-1,2,4a,5-tetrahydropyrazino[2,1-c][1,4]benzoxazin-3(4H)-yl)propyl]pyrido[2′,3′:4,5]thieno[3,2-d]pyrimidine-2,4(1H,3H)-dione trihydrochloride] yielded an inhibition constant (Ki) of 2.5 nM.

For the compound `COc1cccc2c1N1CCN(CCn3c(=O)[nH]c4c(sc5cccnc54)c3=O)CC1CO2.Cl.Cl` (single isomer, unassigned; (-)) [Example 7, (−) 3-[2-(10methoxy-1,2,4a,5-tetrahydropyrazino[2,1-c][1,4]benzoxazin-3(4H)-yl)ethyl]pyrido[2′,3′:4,5]thieno[3,2-d]pyrimidine-2,4(1H,3H)-dione dihydrochloride], the inhibition constant Ki was determined as 0.251 nM.

The compound `COc1cccc2c1N1CCN(CCCCn3c(=O)[nH]c4c(sc5ncccc54)c3=O)CC1CO2.Cl.Cl.Cl` (single isomer, unassigned; (+)) [Example 15, (+) 3-[4-(10-methoxy-1,2,4a,5-tetrahydropyrazino[2,1-c][1,4]benzoxazin-3(4H)-yl)butyl]pyrido[3′,2′:4,5]thieno[3,2-d]pyrimidine-2,4(1H,3H)-dione trihydrochloride] returned an inhibitory constant (Ki) of 0.289 nM.

`COc1cccc2c1N1CCN(CCCCn3c(=O)[nH]c4c(sc5ncccc54)c3=O)CC1CO2` (single isomer, unassigned; (-)) [Example 11, (−) 3-[4-(10-methoxy-1,2,4a,5-tetrahydropyrazino[2,1-c][1,4]benzoxazin-3(4H)-yl)butyl]pyrido[3′,2′:4.5]thieno[3,2-d]pyrimidine-2,4(1H,3H)-dione trihydrochloride] had a Ki of 0.387 nM.

The compound “(−) 3-[3-(10-methoxy-1,2,4a,5-tetrahydropyrazino[2,1-c][1,4]benzoxazin-3(4H)-yl)butyl]pyrido[2′,3′:4,5]thieno[3,2-d]pyrimidine-2,4(1H,3H)-dione trihydrochloride [Example 10]” returned an inhibition constant (Ki) of 0.243 nM.

The compound `COc1cccc2c1N1CCN(CCCn3c(=O)[nH]c4c(sc5cccnc54)c3=O)CC1CO2.Cl.Cl.Cl` (single isomer, unassigned; (-)) [Example 9, (−) 3-[3-(10-methoxy-1,2,4a,5-tetrahydropyrazino[2,1-c][1,4]benzoxazin-3(4H)-yl)propyl]pyrido[2′,3′:4,5]thieno[3,2-d]pyrimidine-2,4(1H, 3H)-dione trihydrochloride] came in with a Ki of 0.249 nM.

`COc1cccc2c1N1CCN(CCn3c(=O)[nH]c4c(sc5ncc(Cl)nc54)c3=O)CC1CO2.Cl.Cl` (single isomer, unassigned; (+)) [Example 8, (+) 3-[2-(10-methoxy-1,2,4a,5-tetrahydropyrazino[2,1-c][1,4]benzoxazin-3(4H)-yl)ethyl]-8-chloropyrazino[2′,3′:4,5]thieno[3,2-d]pyrimidine-2,4(1H,3H)-dione dihydrochloride] returned a Ki of 0.463 nM.

In turn, `Cl.Cl.O=c1[nH]c2c(sc3ncccc32)c(=O)n1CCCCN1CCN2c3ccccc3OCC2C1` (single isomer, unassigned; (+)) [Example 5, (+) 3-[4-(1,2,4a,5-tetrahydropyrazino[2,1-c][1,4]benzoxazin-3(4H)-yl)butyl]pyrido[3′, 2′:4,5]thieno[3,2-d]pyrimidine-2,4(1H,3H)-dione dihydrochloride] displayed a Ki of 2.72 nM.

Take `Cl.Cl.O=c1[nH]c2c(sc3cccnc32)c(=O)n1CCCN1CCN2c3ccccc3OCC2C1` (single isomer, unassigned; (+)) [Example 1, (+) 3-[3-(1,2,4a,5-tetrahydropyrazino[2,1-c][1,4]benzoxazin-3(4H)-yl)propyl]pyrido[2′,3′:4,5]thieno[3,2-d]pyrimidine-2,4(1H,3H)-dione dihydrochloride]: the Ki amounted to 1.18 nM.

`O=c1[nH]c2c(sc3cccnc32)c(=O)n1CCCCN1CCN2c3ccccc3OCC2C1` (single isomer, unassigned; (-)) [Example 4, (−) 3-[4-(1.2,4a,5-tetrahydropyrazino[2,1-c][1,4benzoxazin-3(4H)-yl)butyl]pyrido[2′,3′:4,5]thieno[3,2-d]pyrimidine-2,4(1H,3H)-dione dihydrochloride] showed an inhibition constant Ki of 3.6 nM.

`Cl.Cl.O=c1[nH]c2c(sc3cccnc32)c(=O)n1CCCCN1CCN2c3ccccc3OCC2C1` (single isomer, unassigned; (+)) [Example 3, (+) 3-[4-(1,2,4a,5-tetrahydropyrazino[2,1-c][1,4]benzoxazin-3(4H)-yl)butyl]pyrido[2′, 3′:4,5]thieno[3,2-d]pyrimidine-2,4(1H,3H)-dione dihydrochloride] registered an inhibition constant Ki of 2.09 nM.

On to `COc1cccc2c1N1CCN(CCCCn3c(=O)[nH]c4c(sc5ncc(Cl)nc54)c3=O)CC1CO2.Cl.Cl` (single isomer, unassigned; (-)) [Example 12, (−) 3-[4-(10-methoxy-1,2,4a,5-tetrahydropyrazino[2,1-c][1,4]benzoxazin-3(4H)-yl)butyl]-8-chloropyrazino[2′,3′:4,5]thieno[3,2-d]pyrimidine-2,4(1H,3H)-dione dihydrochloride], for which the affinity, expressed as Ki, was 0.41 nM.

For the compound `COc1cccc2c1N1CCN(CCn3c(=O)[nH]c4c(sc5ncc(Cl)nc54)c3=O)CC1CO2.Cl.Cl` (single isomer, unassigned; (-)) [Example 13, (−) 3-[2-(10-methoxy-1,2,4a,5-tetrahydropyrazino[2,1-c][1,4]benzoxazin-3(4H)-yl)ethyl]-8-chloropyrazino[2′,3′:4,5]thieno[3,2-d]pyrimidine-2,4(1H,3H)-dione dihydrochloride], the Ki is 0.685 nM.

Compound `COc1cccc2c1N1CCN(CCn3c(=O)[nH]c4c(sc5cccnc54)c3=O)CC1CO2.Cl.Cl.Cl` (single isomer, unassigned; (+)) [Example 16, (+) 3-[2-(10-methoxy-1,2,4a,5-tetrahydropyrazino[2,1-c][1,4]benzoxazin-3(4H)-yl)ethyl]pyrido[2′,3′:4,5]thieno[3,2-d]pyrimidine-2,4(1H,3H)-dione trihydrochloride] showed an inhibitory constant (Ki) of 0.334 nM.
